From US6197822A, “Neuropeptide antagonists” (Pfizer Inc., priority 2000, dated 2001)

Target: T1, recombinant human NPY 5 receptors (Homo sapiens, UniProt Q15761)
T1 construct: made in house; host or cells: Sf9 insect cells, baculovirus-infected (membranes)
T1 sequence (Q15761 1-445): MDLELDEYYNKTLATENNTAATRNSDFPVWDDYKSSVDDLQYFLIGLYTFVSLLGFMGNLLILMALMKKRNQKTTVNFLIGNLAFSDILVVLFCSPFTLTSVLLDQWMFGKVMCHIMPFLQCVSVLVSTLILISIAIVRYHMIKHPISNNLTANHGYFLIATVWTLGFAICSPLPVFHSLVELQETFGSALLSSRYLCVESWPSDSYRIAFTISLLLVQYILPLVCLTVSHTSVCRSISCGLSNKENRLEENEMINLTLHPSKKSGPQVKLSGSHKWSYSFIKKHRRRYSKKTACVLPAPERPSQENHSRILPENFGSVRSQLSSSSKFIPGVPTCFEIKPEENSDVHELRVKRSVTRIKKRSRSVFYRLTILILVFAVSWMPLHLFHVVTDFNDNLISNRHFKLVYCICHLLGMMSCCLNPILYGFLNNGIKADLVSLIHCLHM
Assay: [125I]PYY binding at human NPY5 receptors expressed in Sf9 cells
Conditions: [125I]PYY(porcine) displacement, membranes of baculovirus-infected Sf9 cells; read-out: Ki (binding constants in the NPY5)
Method: [^125 I]PYY Binding at Human NPY Receptors Expressed in Sf9 Cells
Baculovirus-infected Sf9 cells expressing recombinant human NPY 5 receptors are harvested at 48 hours. At the time of harvest, cell pellets are resuspended in lysis buffer (20 mM Tris-HCl, pH 7.4, 5 mM EDTA, 0.5 μg/ml leupeptin, 2 μg/ml Aprotonin and […]) and homogenized using a Polytron (setting 3, 25-30 seconds). Homogenates are centrifuged at 4° C. for 5 minutes at 200 x g ([…]) to pellet the nuclei. The supernatant is collected into a fresh tube and centrifuged at 48,000 x g for 10 minutes. Pellets are washed once in lysis buffer and centrifuged. The final pellet is resuspended in PBS and stored in aliquots at -80° C. Purified membranes are washed using PBS and resuspended in binding buffer (50 mM Tris(HCl), pH 7.4, 5 mM KCl, 120 mM NaCl, 2 mM CaCl2, 1 mM MgCl2, 0.1% bovine serum albumin (BSA)). Membranes (20 μg/reaction tube) are added to polypropylene tubes containing 0.035 nM [^125 I]PYY(porcine), displacers ranging from 10^-12 M to 10^-5 M, and buffer to yield a final volume of 0.5 mL. Nonspecific binding is determined in the presence of 1 μM NPY(human) and accounts for 10% of total binding. Following a 2 hour incubation at room temperature, the reaction is terminated by rapid vacuum filtration. […] IC50 values were calculated with the non-linear curve fitting program RS/1 (SigmaPlot, Jandel).

Structure (SMILES): Cc1ccc(NC(=O)C(c2ccccc2)c2ccccc2)cc1 [--CH3]
- Ki: 800 nM

Structure (SMILES): CCN(CC)c1ccc(NC(=O)C(c2ccccc2)c2ccccc2)cc1 [--N(C2 H5)2]
- Ki: 8 nM
